Values joined by “and” are separate entries in the source; they are usually repeats but may differ in a detail not shown here. Equal entries are not always repeated. Toxic doses and inconclusive results are not listed.
Tested on: L1210 leukemia ip in BDF1 mice, survival T/C
Experiment: NCI In Vivo Anticancer Drug Screen. Data for tumor model L1210 Leukemia (intraperitoneal) in B6D2F1 (BDF1) mice
Details: endpoint: mean survival time, higher = longer survival
How it was run: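 Tumor cells were implanted, animals were treated, and survival was followed. The result divides the treated measurement by the vehicle-control measurement.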

[1] = dose: 75.0 mg/kg/injection, schedule: Q01DX001 (ip), vehicle: saline
[2] = dose: 100.0 mg/kg/injection, schedule: Q01DX001 (ip), vehicle: carboxymethylcellulose (CMC)
[3] = dose: 150.0 mg/kg/injection, schedule: Q01DX001 (ip), vehicle: saline
[4] = dose: 200.0 mg/kg/injection, schedule: Q01DX001 (ip), vehicle: carboxymethylcellulose (CMC)
[5] = dose: 400.0 mg/kg/injection, schedule: Q01DX001 (ip), vehicle: carboxymethylcellulose (CMC)
[6] = dose: 25.0 mg/kg/injection, schedule: Q04DX003 (ip), vehicle: saline

CC(=O)Oc1ccc[nH]c1=O
T/C [1]: 103 % of control
T/C (dose: 75.0 mg/kg/injection, schedule: Q04DX003 (ip), vehicle: saline): 103 % of control
T/C [2]: 100 % of control
T/C (dose: 100.0 mg/kg/injection, schedule: Q01DX009 (ip), vehicle: carboxymethylcellulose (CMC)): 98 % of control
T/C (dose: 100.0 mg/kg/injection, schedule: Q01DX009 (ip), vehicle: saline): 101 % of control
T/C (dose: 100.0 mg/kg/injection, schedule: Q01DX015 (ip), vehicle: saline): 102 % of control
T/C [3]: 102 % of control
T/C (dose: 150.0 mg/kg/injection, schedule: Q04DX003 (ip), vehicle: saline): 100 % of control
T/C [4]: 97 % of control
T/C (dose: 200.0 mg/kg/injection, schedule: Q01DX009 (ip), vehicle: carboxymethylcellulose (CMC)): 109 % of control
T/C (dose: 200.0 mg/kg/injection, schedule: Q01DX009 (ip), vehicle: saline): 114 % of control
T/C (dose: 200.0 mg/kg/injection, schedule: Q01DX015 (ip), vehicle: saline): 124 % of control
T/C (dose: 300.0 mg/kg/injection, schedule: Q01DX001 (ip), vehicle: saline): 110 % of control
T/C (dose: 300.0 mg/kg/injection, schedule: Q04DX003 (ip), vehicle: saline): 113 % of control
T/C [5]: 103 % of control
T/C (dose: 400.0 mg/kg/injection, schedule: Q01DX009 (ip), vehicle: saline): 153 % of control
T/C (dose: 800.0 mg/kg/injection, schedule: Q01DX009 (ip), vehicle: carboxymethylcellulose (CMC)): 154 % of control
T/C (dose: 800.0 mg/kg/injection, schedule: Q01DX009 (ip), vehicle: saline): 88 % of control

CCOC(=O)C(OCc1ccccc1)(C(=O)N1CCCCC1=O)C(C)C (stereo unspecified)
T/C (dose: 25.0 mg/kg/injection, schedule: Q04DX003 (ip), vehicle: Klucel (hydroxypropylcellulose) (HPC)): 119 % of control
T/C (dose: 50.0 mg/kg/injection, schedule: Q04DX003 (ip), vehicle: Klucel (hydroxypropylcellulose) (HPC)): 97 % of control
T/C (dose: 100.0 mg/kg/injection, schedule: Q04DX003 (ip), vehicle: Klucel (hydroxypropylcellulose) (HPC)): 113 % of control
T/C (dose: 200.0 mg/kg/injection, schedule: Q04DX003 (ip), vehicle: Klucel (hydroxypropylcellulose) (HPC)): 88 % of control

CC(C)=CCC(C#N)(CCN1CCCC1)c1cccc2ccccc12 (stereo unspecified)
T/C (dose: 12.5 mg/kg/injection, schedule: Q01DX009 (ip), vehicle: Klucel (hydroxypropylcellulose) (HPC)): 100 % of control
T/C (dose: 25.0 mg/kg/injection, schedule: Q01DX009 (ip), vehicle: Klucel (hydroxypropylcellulose) (HPC)): 118 % of control
T/C (dose: 50.0 mg/kg/injection, schedule: Q01DX009 (ip), vehicle: Klucel (hydroxypropylcellulose) (HPC)): 105 % of control

OC1CC(c2ccccc2)C1(c1ccccc1)c1ccccc1 (stereo unspecified)
T/C (dose: 75.0 mg/kg/injection, schedule: Q01DX001 (ip), vehicle: other): 104 % of control
T/C (dose: 150.0 mg/kg/injection, schedule: Q01DX001 (ip), vehicle: other): 102 % of control
T/C (dose: 300.0 mg/kg/injection, schedule: Q01DX001 (ip), vehicle: other): 94 % of control

CCCCCc1cccc(C)n1
T/C (dose: 100.0 mg/kg/injection, schedule: Q01DX001 (ip), vehicle: saline): 96 % of control

FC(F)(F)c1ccc2c(c1)N(CCCN1CC[N+]3(CCOCC3)CC1)c1ccccc1S2
T/C (dose: 6.25 mg/kg/injection, schedule: Q01DX009 (ip), vehicle: saline): 97 % of control
T/C (dose: 12.5 mg/kg/injection, schedule: Q01DX009 (ip), vehicle: saline): 95 % of control
T/C (dose: 12.5 mg/kg/injection, schedule: Q04DX003 (ip), vehicle: saline): 114 % of control
T/C [6]: 91 % of control

CNC(=O)CCN1CCN(CC/C=C2\c3ccccc3Sc3ccc(Cl)cc32)CC1
T/C (dose: 1.56 mg/kg/injection, schedule: Q03HX024 (ip), vehicle: saline): 95 % of control
T/C (dose: 2.05 mg/kg/injection, schedule: Q01DX009 (ip), vehicle: saline): 90 % of control
T/C (dose: 3.12 mg/kg/injection, schedule: Q03HX024 (ip), vehicle: saline): 100 % of control
T/C (dose: 4.1 mg/kg/injection, schedule: Q01DX009 (ip), vehicle: saline): 94 % of control
T/C (dose: 8.2 mg/kg/injection, schedule: Q01DX009 (ip), vehicle: saline): 111 % of control
T/C (dose: 16.5 mg/kg/injection, schedule: Q01DX009 (ip), vehicle: saline): 111 % of control
T/C (dose: 18.75 mg/kg/injection, schedule: Q01DX001 (ip), vehicle: saline): 106 % of control
T/C [6]: 122 % of control
T/C (dose: 37.5 mg/kg/injection, schedule: Q01DX001 (ip), vehicle: saline): 108 % of control
T/C [1]: 106 % of control
T/C (dose: 100.0 mg/kg/injection, schedule: Q04DX003 (ip), vehicle: saline): 114 % of control
T/C [3]: 106 % of control

NC(=S)N/N=C/c1ccc([N+](=O)[O-])cc1
T/C (dose: 12.5 mg/kg/injection, schedule: Q01DX001 (ip), vehicle: saline with Tween-80): 95 % of control
T/C (dose: 25.0 mg/kg/injection, schedule: Q01DX001 (ip), vehicle: saline with Tween-80): 95 % of control
T/C (dose: 50.0 mg/kg/injection, schedule: Q01DX001 (ip), vehicle: saline with Tween-80): 91 % of control

CC1(C)CCC2(C(=O)O)CCC3=C(C(CCl)CC4C3(C)CCC3C4(C)CC(O)C(O)C3(C)C(=O)O)C2C1 (stereo unspecified)
T/C (dose: 25.0 mg/kg/injection, schedule: Q01DX Z (ip), vehicle: carboxymethylcellulose (CMC)): 96 % of control
T/C (dose: 50.0 mg/kg/injection, schedule: Q01DX Z (ip), vehicle: carboxymethylcellulose (CMC)): 91 % of control
T/C (dose: 75.0 mg/kg/injection, schedule: Q01DX Z (ip), vehicle: carboxymethylcellulose (CMC)): 97 % of control
T/C (dose: 125.0 mg/kg/injection, schedule: Q01DX Z (ip), vehicle: carboxymethylcellulose (CMC)): 94 % of control

BrCc1ccc(-c2ccccc2)cc1
T/C (dose: 5.0 mg/kg/injection, schedule: Q01DX009 (ip), vehicle: Klucel (hydroxypropylcellulose) (HPC)): 96 % of control
T/C (dose: 5.0 mg/kg/injection, schedule: Q04DX003 (ip), vehicle: Klucel (hydroxypropylcellulose) (HPC)): 92 % of control
T/C (dose: 10.0 mg/kg/injection, schedule: Q01DX009 (ip), vehicle: Klucel (hydroxypropylcellulose) (HPC)): 93 % of control
T/C (dose: 10.0 mg/kg/injection, schedule: Q04DX003 (ip), vehicle: Klucel (hydroxypropylcellulose) (HPC)): 97 % of control
T/C (dose: 20.0 mg/kg/injection, schedule: Q01DX009 (ip), vehicle: Klucel (hydroxypropylcellulose) (HPC)): 98 % of control
T/C (dose: 20.0 mg/kg/injection, schedule: Q04DX003 (ip), vehicle: Klucel (hydroxypropylcellulose) (HPC)): 93 % of control

Cc1ccc(-c2csc(NC(=O)CC(=O)N/N=C/c3ccc(N(CCCl)CCCl)cc3C)n2)cc1
T/C [2]: 112 % of control
T/C [4]: 88 % of control
T/C [5]: 93 % of control

[N-]=[N+]=CC(=O)NCC(=O)NO
T/C (dose: 50.0 mg/kg/injection, schedule: Q01DX001 (ip), vehicle: water): 117 % of control
T/C (dose: 75.0 mg/kg/injection, schedule: Q01DX009 (ip), vehicle: water): 95 % of control
T/C (dose: 100.0 mg/kg/injection, schedule: Q01DX001 (ip), vehicle: water): 96 % of control
T/C (dose: 100.0 mg/kg/injection, schedule: Q01DX009 (ip), vehicle: other): 100 % of control
T/C (dose: 150.0 mg/kg/injection, schedule: Q01DX009 (ip), vehicle: water): 120 % of control
T/C (dose: 180.0 mg/kg/injection, schedule: Q01DX001 (ip), vehicle: water): 116 % of control
T/C (dose: 200.0 mg/kg/injection, schedule: Q01DX001 (ip), vehicle: water): 102 % of control
T/C (dose: 200.0 mg/kg/injection, schedule: Q01DX009 (ip), vehicle: other): 101 % of control
T/C (dose: 270.0 mg/kg/injection, schedule: Q01DX001 (ip), vehicle: water): 110 % of control
T/C (dose: 270.0 mg/kg/injection, schedule: Q01DX009 (ip), vehicle: water): 155 % of control
T/C (dose: 300.0 mg/kg/injection, schedule: Q01DX009 (ip), vehicle: other): 111 % of control
T/C (dose: 300.0 mg/kg/injection, schedule: Q01DX009 (ip), vehicle: water): 123 % of control
T/C (dose: 400.0 mg/kg/injection, schedule: Q01DX001 (ip), vehicle: water): 108 % of control and 111 % of control and 113 % of control
T/C (dose: 450.0 mg/kg/injection, schedule: Q01DX008 (ip), vehicle: water): 150 % of control
T/C (dose: 500.0 mg/kg/injection, schedule: Q01DX009 (ip), vehicle: other): 97 % of control
T/C (dose: 600.0 mg/kg/injection, schedule: Q01DX009 (ip), vehicle: water): 91 % of control
T/C (dose: 1600.0 mg/kg/injection, schedule: Q01DX001 (ip), vehicle: water): 90 % of control

Cc1ccc(I)cc1NCN1C(=O)c2ccccc2C1=O
T/C (dose: 100.0 mg/kg/injection, schedule: Q04DX002 (ip), vehicle: saline with Tween-80): 100 % of control
T/C (dose: 200.0 mg/kg/injection, schedule: Q04DX002 (ip), vehicle: saline with Tween-80): 107 % of control
T/C (dose: 400.0 mg/kg/injection, schedule: Q04DX002 (ip), vehicle: saline with Tween-80): 104 % of control
